{"source": "patent US9486447B2", "about": "“Compositions and methods for controlling neuronal excitation” (The General Hospital Corporation, priority 2011, dated 2016)", "key": {"hTRPA1": {"target": "T1, hTRPA1 (Homo sapiens, UniProt O75762)", "T1 construct": "expressed in transfected cells; host or cells: HEK293 / HEK293T", "assay": "Calcium imaging of transfected HEK cells", "type": "cell-based", "description": "To determine if TRPA1 is sufficient for optovin activity, current density amplitudes were analyzed via whole-cell patch clamping in HEK293T cells transfected with the human TrpA1 (hTrpA1) gene.\nHEK293 cells were plated onto poly-lysine-coated glass bottom culture dishes (MatTek Corp), and grown in Dulbecco's Modified Eagle's Medium (DMEM, Sigma) supplemented with 10% fetal bovine serum and 100 U/mL penicillin and 100 μg/ml streptomycin. After 24 hrs, cells were transfected, according to manufacturer's instructions, in Opti-MEM media, using 4 μl lipofectamine 2000 (Invitrogen), 0.5 ug EGFP in pcDNA, and 0.3 μg TrpA1 DNA per dish. Media was replaced after 2 hours, and cells were cultured for an additional 17 hours. As previously described for neurons, HEK cells were washed with assay buffer (HBSS Gibco 14025, supplemented with 9 mM HEPES, 11 mM D-glucose, 0.1% fatty-acid free BSA, pH 7.3) and incubated for 1 h with 2 μM Fura2-AM (Invitrogen) with 0.2% pluronic (Invitrogen) in assay buffer in the dark at room temperature. The cells were then washed with assay buffer and allowed to equilibrate at room temperature for 30 min prior to imaging. At the start of the imaging session for each dish, cells were replaced with DMSO-assay buffer. After 50 seconds of imaging, assay buffer was aspirated by hand, and replaced with 100 μM optovin dissolved in the DMSO-assay buffer solution. Each dish of HEK cells was imaged for a total of 3 minutes.\nCells were transfected with the hTRPA1^44, TRPA1 C621S^44, hTRPA1 C633S^45 and hTRPA1 C633S, C856S^45 plasmids as described."}, "[1]": {"assay": "Reactive oxygen species generation (singlet oxygen sensor green, NBT)", "type": "physicochemical", "from_the_text": "How might optovin activate TRPA1? When molecules absorb light, photons can excite electrons from their ground state to a […] via intersystem crossing^37. These photoactivated compounds can then undergo reactions by transferring energy or electrons to target molecules, including aqueous molecular oxygen. Optovin is a yellow-colored compound with peak absorbance at 415 nm (FIG. 4A). To determine if optovin is photochemically reactive, it was exposed to increasing intensities of 415 nm light and assayed for reactive oxygen species (ROS) generation.\nAssay for singlet oxygen generation using singlet oxygen sensor green (SOSG) UV-vis absorption spectra were recorded at 20 uM in methanol using an Evolution 300 UV-Vis Spectrophotometer (Thermo Fisher Scientific Inc., Waltham, Mass.). 96-well black-sided plates were used for fluorescent probe experiments. SOSG (Molecular Probes Invitrogen, Eugene, Oreg.) as a 1 mM stock solution in DMF was added to give final concentration of 5 μM SOSG, to optovin and analogues dissolved as 5 μM solutions in 200 μL 50% H2O/CH3CN preloaded in 96-well plates. An Omnilux Clear-U LED light source (Photo Therapeutics Inc), Carlsbad, Calif.) that emits blue light 415-nm+15-nm as a homogeneous spot with an irradiance of 50 mW/cm^2 measured with a power meter (model DMM 199 with 201 standard head; Coherent, Santa Clara, Calif.) that covers an area of one half of a 96-well plate.\nFluorescence spectrophotometry was carried out with SpectraMax M5 plate reader (Molecular Devices, Sunnyvale, Calif.) using excitation and emission at 504 and 525-nm Fluorescence was read after each successive increment of blue light was delivered. As a positive control for a known photosensitizer that absorbs 415-nm light with a quantum yield of singlet oxygen of approximately 0.6 we used a conjugate between polyethylenimine and chlorin(e6) (PEI-ce6)^46."}}}
{"smiles": "Cc1cc(/C=C2/SC(=S)NC2=O)c(C)n1-c1cccnc1", "note": "[optovin]", "values": [{"measurement": "change in fluorescence in response to light and optovin", "setting": "hTRPA1; WT channels", "value": "strong change in fluorescence"}, {"measurement": "effect of catalase and superoxide dismutase on optovin's effects", "setting": "hTRPA1; hTRPA1 transfected HEK cells", "value": "Neither catalase nor superoxide dismutase reduce optovin's effects"}, {"measurement": "calcium levels", "setting": "hTRPA1; optovin and light, HEK cells transfected with hTrpA1", "value": "elevated calcium levels were observed"}, {"measurement": "hydroxyl radical and superoxide generation", "setting": "[1]; 415 nm light", "value": "neither hydroxyl radicals nor superoxide"}, {"measurement": "singlet oxygen generation", "setting": "[1]; 415 nm light", "value": "generates singlet oxygen"}, {"measurement": "singlet oxygen quantum yield", "setting": "[1]; estimated by comparison with PEI-ce6", "value": "about 0.04"}]}
